Series [1] relates to SD-STZ rats (Sprague-Dawley rats rendered diabetic with streptozotocin). Particulars: rat, in vivo.
Experimental: (§1) The severity of the diabetic state was evaluated by daily monitoring of body weight, clinical signs and blood glucose levels.
(§2) The dose of STZ was prepared at the time of use by dissolving the compound in 0.05M citrate buffer, pH 4.5. For the STZ administration, the animals were placed in the dorsal position and the injection site was disinfected and buffered with an iodine-povidone solution; the i.p. injection was performed in the caudal abdominal cavity of the rats, using a sterile 25 g needle. The severity of the diabetes caused by administration of STZ was monitored daily, evaluating blood glucose levels with the One-Touch profile (LifeScan, Milpitas, Calif.), every day; urine glucose with Clinistix (Bayer Diagnostica, Basingstoke, United Kingdom), twice a week; insulin levels, twice a week, with an RIA Kit (BioRad, Milan, Italy).
(§3) 5) subcutaneously twice a day. The retinal functionality of the animals in each group was evaluated by ERG before euthanasia and removal of the retinas for quantitative histochemical analysis.
(§4) Retinal function was evaluated by ERG, as reported in detail in example 2.
(§5) The study design involved 5 groups of 10 rats, 5 male and 5 female. […]
The subject of series [2] is DP BB rats (Diabetes-Prone BioBreeding rats). To be noted: rat, in vivo, sc.
Experimental: (§6) The efficacy of formulation 3, described in example 1, in the treatment of the retinal vascular alterations associated with diabetes, was evaluated using as experimental model DP BB rats (Diabetes-Prone BioBreeding rats, M&B Bomholtvej, Denmark), analyzing the retinal function of the treated animals by electroretinography (ERG) and the state of vascularization of the retina by quantitative immunohistochemical techniques.
(§7) 60 3-week old DP BB rats of both sexes (30 male and 30 female) were used. […] The animals were observed from the 3rd to 30th weeks of life, monitoring various parameters, including weight, blood glucose, urine glucose and blood insulin. In particular, the onset of diabetes was evaluated by measuring blood glucose with the One-Touch profile (LifeScan, Milpitas, Calif.) twice a week, and every day from the 13th week; urine glucose with Clinistix (Bayer Diagnostica, Basingstoke, United Kingdom), twice a week; insulin levels twice a week, with an RIA Kit (BioRad, Milan, Italy). […]
(§8) The retinal functionality of the animals in each group was evaluated by ERG before euthanasia and removal of the retinas for quantitative histochemical analysis.
(§9) Retinal functionality was evaluated by ERG, using a scotopic full-field ERG. […] The wave amplitude was measured at a fixed time of 8 ms from the stimulus, to minimise non-photoreceptor contamination. […]
The test system is the same in series [3]. Description: CD31 immunohistochemistry and quantitative analysis of neovascular tuft formations in retinas of DP BB rats. Format: in vivo, rat. Particulars: daily s.c., peptide groups E, F, insulin alone group C, peptide+insulin group D. Here is the method:
The state of vascularization of the retina of the treated animals was studied on the whole retinas, using antibodies directed against CD31 (BD Biosciences, San Diego, Calif., USA), an important marker for the endothelial cells. The immunohistochemical tests on the retinas and quantitative analysis of the neovascular tuft formations, vascular and avascular areas, were conducted as reported in the literature (Exp Eye Res. 2013; 111:27-35; Invest Ophthalmol Vis Sci. 2012; 53:2181-2192; J Neurochem. 2011; 119:1317-1329; Invest Ophthalmol Vis Sci. 2006; 47:2125-2134). […]
The retinal vascularization images were acquired with an epifluorescence microscope (Eclipse E800; Nikon Corp., Amsterdam, Netherlands) using a digital camera converter (SD-Filc camera; Nikon Corp.). The electronic images were processed with image-processing software (Adobe Photoshop; Adobe Systems, Inc., Mountain View, Calif., USA) to allow quantitative analysis of the results. For each experimental condition, the quantitative data originated from 20 retinas of 10 different rats.
Table 3—Immunohistochemical tests on retinas and quantitative analysis of neovascular tuft formations. […] The electronic images were processed with image-processing software (Adobe Photoshop; Adobe Systems, Inc., Mountain View, Calif., USA) to allow quantitative analysis of the results. […]

Series [4] relates to SD-STZ rats (Sprague-Dawley rats rendered diabetic with streptozotocin). Description: Immunohistochemistry and quantitative analysis of neovascular tuft formations in retinas of SD-STZ rats. The class given is in vivo, rat. To be noted: daily administration, peptide groups C and E, insulin alone group D. The text has this: 5) subcutaneously twice a day.
For each experimental condition, the quantitative data originated from 20 retinas of 10 different rats.
Table 5—Immunohistochemical tests on retinas and quantitative analysis of neovascular tuft formations. The state of vascularization of the retina of the treated animals was studied as reported in example 2. For each experimental condition, the quantitative data originated from 20 retinas of 10 different rats. […] The areas of neovascularization are expressed as the ratio between the area of neovascularization present in the animals which are not yet diabetic (Group A≈0.1% of the retinal area) and that of the group. […] 5) subcutaneously twice a day.

The test system is the same in series [5]. The experiment in a line: Retinal function by ERG (SOPs) in rats rendered diabetic with streptozotocin. Particulars: daily administration, peptide groups C and E, insulin alone printed as groups B and D.
Experimental: as §1, §2, §3, §4, §5
The test system of series [6] is DP BB rats (Diabetes-Prone BioBreeding rats). The experiment in a line: Retinal function by scotopic full-field ERG (SOPs) in diabetes-prone BioBreeding rats. To be noted: daily s.c., peptide groups E, F, insulin alone group C, peptide+insulin group D.
Experimental: as §6, §7, §8, §9

Where two headings read alike, the source gives them in different places. Where a SMILES comes first, the peptide text is derived from it. [ ]: non-standard residue; d: D form. ξ: configuration not given here. ξαMeF = CC(N)(Cc1ccccc1)C(=O)O; Aib = CC(C)(N)C(=O)O

With `CC(=O)NC(C)(C)C(=O)N[C@@H](CCCNC(=N)N)C(=O)NC(C)(C)C(=O)N[C@@H](CCCNC(=N)N)C(=O)NC(C)(Cc1ccccc1)C(N)=O` (stereo partly drawn) [Ac-Aib-Arg-Aib-Arg-α(Me)Phe-NH2] (Ac-[Aib]R[Aib]R[ξαMeF]-NH2), in series [1], the “effect on retinal vascular damage, in words (Table 4)” value is on record as “prevent ab initio the formation of retinal vascular damage”.
As to `CC(=O)N[C@@H](CCCNC(=N)N)C(=O)NC(C)(C)C(=O)N[C@@H](CCCNC(=N)N)C(=O)NC(C)(Cc1ccccc1)C(N)=O` (stereo partly drawn) [Ac-Arg-Aib-Arg-α(Me)Phe-NH2] (Ac-R[Aib]R[ξαMeF]-NH2), the “effect on retinal vascular damage / eyesight, in words (Table 2)” value in series [2] is “prevent the formation of retinal vascular damage”.
With insulin, the “effect on retinal vascular damage / NTA, in words (Table 3)” value in series [3] is listed as “causes a major increase in NTA”. In addition, the “effect on retinal vascular damage / NTA, in words (Table 5)” value in series [4] was “leads to a major increase in NTA”. Further, the “effect on retinal vascular damage, in words (Table 4)” value in series [5] is listed as “gives rise to major retinal vascular damage”. For the same molecule, the “effect on retinal vascular damage / eyesight, in words (Table 2)” value in series [6] was “causes major retinal vascular damage”.

The values are drawn from patent US20180326014A1, “PHARMACEUTICAL FORMULATIONS FOR THE TREATMENT OF DIABETES” (KALEYDE PHARMACEUTICALS AG, priority 2016, published 2018).
